From the NIST ThermoML archive (doi:10.1016/j.jct.2009.05.010)
“And” between values parts separate entries of the source, which are not always exact repeats. Equal entries are not always repeated.

Conditions: Crystal, Calculated from knudsen effusion weight loss

O=[N+]([O-])c1cc(Br)ccc1Br [1,4-dibromo-2-nitrobenzene]
Conditions	vapor or sublimation pressure
302.14 K	9.9e-05 kPa and 9.7e-05 kPa
304.16 K	0.000121 kPa and 0.000125 kPa and 0.000123 kPa
306.15 K	0.000167 kPa and 0.000166 kPa and 0.000163 kPa
308.15 K	0.000204 kPa and 0.000205 kPa and 0.000203 kPa
310.14 K	0.00026 kPa and 0.000264 kPa and 0.000261 kPa
312.14 K	0.000327 kPa and 0.000332 kPa and 0.000329 kPa
314.14 K	0.000418 kPa and 0.000419 kPa
316.14 K	0.000522 kPa and 0.000527 kPa and 0.000524 kPa
318.15 K	0.000666 kPa and 0.000675 kPa and 0.000673 kPa
320.15 K	0.000884 kPa and 0.000858 kPa and 0.000838 kPa
322.14 K	0.001072 kPa and 0.001068 kPa and 0.001063 kPa
